The NIST ThermoML archive (doi:10.1021/je700345b)
Values joined by “and” are separate entries in the source; they are usually repeats but may differ in a detail not shown here. Equal values may be shown once.

Experiment: wn = mass fraction of the nth substance listed
Conditions: Liquid, w2 = 0.5

CC(F)(F)F [1,1,1-trifluoroethane] + FC(F)C(F)(F)F
Conditions | viscosity
253.26 K, 2000 kPa | 0.237 mPa·s
253.26 K, 2010 kPa | 0.2374 mPa·s
253.26 K, 2090 kPa | 0.2377 mPa·s
253.26 K, 2170 kPa | 0.2378 mPa·s
253.26 K, 2180 kPa | 0.2371 mPa·s
253.26 K, 2220 kPa | 0.2379 mPa·s
253.26 K, 3370 kPa | 0.2426 mPa·s
253.26 K, 3380 kPa | 0.2427 mPa·s
253.26 K, 3390 kPa | 0.2427 mPa·s
253.26 K, 3410 kPa | 0.2425 mPa·s
253.26 K, 4930 kPa | 0.2479 mPa·s
253.26 K, 4960 kPa | 0.2479 mPa·s
253.26 K, 4970 kPa | 0.248 mPa·s
253.26 K, 4990 kPa | 0.2482 mPa·s
253.26 K, 5020 kPa | 0.2483 mPa·s
253.26 K, 5070 kPa | 0.2487 mPa·s
253.26 K, 7440 kPa | 0.2574 mPa·s
253.26 K, 7500 kPa | 0.2576 mPa·s
253.26 K, 7620 kPa | 0.258 mPa·s
253.26 K, 7720 kPa | 0.2587 mPa·s
263.23 K, 1990 kPa | 0.2076 mPa·s
263.23 K, 2020 kPa | 0.2074 mPa·s
263.23 K, 2070 kPa | 0.2081 mPa·s
263.23 K, 2120 kPa | 0.2077 mPa·s
263.23 K, 3660 kPa | 0.2139 mPa·s
263.23 K, 3670 kPa | 0.2137 mPa·s and 0.2139 mPa·s
263.23 K, 3680 kPa | 0.2138 mPa·s and 0.2137 mPa·s
263.23 K, 3720 kPa | 0.214 mPa·s
263.23 K, 3780 kPa | 0.214 mPa·s
263.23 K, 4690 kPa | 0.2177 mPa·s
263.23 K, 4990 kPa | 0.2192 mPa·s
263.23 K, 5010 kPa | 0.2195 mPa·s
263.23 K, 7000 kPa | 0.2258 mPa·s
263.23 K, 7050 kPa | 0.2257 mPa·s
263.23 K, 7190 kPa | 0.2262 mPa·s
263.23 K, 7220 kPa | 0.227 mPa·s
273.24 K, 2150 kPa | 0.1827 mPa·s
273.24 K, 2160 kPa | 0.1825 mPa·s
273.24 K, 2190 kPa | 0.1826 mPa·s and 0.1823 mPa·s
273.24 K, 2230 kPa | 0.1829 mPa·s
273.24 K, 2260 kPa | 0.1829 mPa·s
273.24 K, 2270 kPa | 0.1829 mPa·s
273.24 K, 3450 kPa | 0.1878 mPa·s and 0.1876 mPa·s
273.24 K, 3470 kPa | 0.1877 mPa·s
273.24 K, 3480 kPa | 0.1873 mPa·s
273.24 K, 3500 kPa | 0.1878 mPa·s
273.24 K, 5030 kPa | 0.1923 mPa·s
273.24 K, 5040 kPa | 0.1925 mPa·s
273.24 K, 5060 kPa | 0.1925 mPa·s
273.24 K, 7360 kPa | 0.2011 mPa·s
273.24 K, 7450 kPa | 0.2008 mPa·s
273.24 K, 7520 kPa | 0.2015 mPa·s
273.24 K, 9710 kPa | 0.2103 mPa·s
273.24 K, 9880 kPa | 0.2106 mPa·s and 0.2104 mPa·s
283.34 K, 2000 kPa | 0.1592 mPa·s
283.34 K, 2060 kPa | 0.1592 mPa·s
283.34 K, 2120 kPa | 0.1591 mPa·s
283.34 K, 2160 kPa | 0.1591 mPa·s
283.34 K, 2220 kPa | 0.1593 mPa·s
283.34 K, 2230 kPa | 0.1592 mPa·s and 0.1596 mPa·s
283.34 K, 2250 kPa | 0.1596 mPa·s
283.34 K, 2260 kPa | 0.1595 mPa·s
283.34 K, 2270 kPa | 0.1597 mPa·s
283.34 K, 3720 kPa | 0.165 mPa·s
283.34 K, 3770 kPa | 0.1651 mPa·s and 0.1654 mPa·s
283.34 K, 3820 kPa | 0.1654 mPa·s
283.34 K, 3860 kPa | 0.1655 mPa·s
283.34 K, 3880 kPa | 0.1657 mPa·s
283.34 K, 4970 kPa | 0.1693 mPa·s
283.34 K, 5000 kPa | 0.1693 mPa·s
283.34 K, 5030 kPa | 0.1696 mPa·s
283.34 K, 5040 kPa | 0.1695 mPa·s
283.34 K, 7600 kPa | 0.178 mPa·s
283.34 K, 7640 kPa | 0.1783 mPa·s
283.34 K, 7680 kPa | 0.1784 mPa·s
283.34 K, 9750 kPa | 0.1851 mPa·s
283.34 K, 9860 kPa | 0.1854 mPa·s
283.34 K, 9900 kPa | 0.1857 mPa·s
283.34 K, 9920 kPa | 0.1857 mPa·s
283.34 K, 9930 kPa | 0.1856 mPa·s
293.33 K, 1920 kPa | 0.1394 mPa·s
293.33 K, 1940 kPa | 0.1392 mPa·s
293.33 K, 1970 kPa | 0.1396 mPa·s
293.33 K, 2020 kPa | 0.1394 mPa·s
293.33 K, 3570 kPa | 0.145 mPa·s
293.33 K, 3690 kPa | 0.1454 mPa·s
293.33 K, 3720 kPa | 0.1455 mPa·s
293.33 K, 3750 kPa | 0.1457 mPa·s
293.33 K, 4910 kPa | 0.1503 mPa·s and 0.15 mPa·s
293.33 K, 5000 kPa | 0.1506 mPa·s
293.33 K, 5030 kPa | 0.1506 mPa·s
293.33 K, 7510 kPa | 0.1585 mPa·s
293.33 K, 7540 kPa | 0.1584 mPa·s
293.33 K, 7560 kPa | 0.1584 mPa·s
293.33 K, 9770 kPa | 0.1667 mPa·s
293.33 K, 9810 kPa | 0.1669 mPa·s
293.33 K, 9850 kPa | 0.1666 mPa·s
293.33 K, 9880 kPa | 0.1669 mPa·s
293.33 K, 9930 kPa | 0.1672 mPa·s
